Assay results as given in patent publication EP0056560A1, “Active antibiotic compositions, process for their manufacture and process for the antibiotic activity of antibiotics” (CIBA-GEIGY AG, priority 1981, dated 1982).

Legend:
Experiment in all cases: Mouse protection test: i.p. infection, s.c. treatment with the antibiotic alone or combined with muramyl peptide, survivors counted
Type in all cases: in vivo, weisse Laboratoriums-Mäuse
[1] = system: Klebsiella pneumoniae; settings: mice infected i.p. with 2 x 10^4 cfu Klebsiella pneumoniae; Cefroxadin s.c. immediately and 3 h after infection, combined with 10 mg/kg N-Acetyl-muramyl-L-alanyl-D-isoglutaminyl-L-alanyl-2-(1',2'-dipalmitoyl-sn-glycero-3'-hydroxyphosphoryloxy)-äthylamid, compared with Cefroxadin alone; survivors counted after 4 or 10 days
Text: (§1) Die hohe antibiotische Wirkung der neuen Präparate und des neuen Verfahrens kann durch "in vivo"-Versuche nachgewiesen werden, die an verschiedenen Tierarten, insbesondere an Säugetieren, wie Mäusen, durchgeführt werden. Dazu infiziert man sie mit einer letalen oder subletalen Dosis eines pathogenen Mikroorganismus und gibt dann das genannte neue Präparat bzw. die einzelnen Dosen an Muramylpeptid und Antibiotikum. Die Wirkung wird als ED50 bestimmt, das ist diejenige Dosis, bei der 50% der Tiere überleben.
(§2) Beispiel 4: Man infiziert weisse Laboratoriums-Mäuse auf i.p. Wege mit 2 x 10^4 cfu (colony forming units) Klebsiella pneumoniae, 0,1 x 10^4 cfu Pasteurella multocida oder 40 x 10^4 cfu Salmonella typhimurium in Salzlösung, so dass 90-100Z der nicht behandelten Kontrolltiere innerhalb von 48 Stunden getötet werden. Unmittelbar, sowie 3 Stunden nach der Infektion werden Gruppen zu je 10 Mäusen mit Cefroxadin, sowohl allein (ohne Muramylpeptid) als auch in Kombination mit 10 mg/kg N-Acetyl-muramyl-L-alanyl-D-isoglutaminyl-L-alanyl-2-(1',2'-dipalmitoyl-sn-glycero-3'-hydroxyphosphoryloxy)-äthylamid behandelt, wobei dieselben zweimal in Form wässriger Lösungen oder Suspensionen auf subkutanem Weg verabreicht werden. Nach 4 bzw. 10 Tagen nach erfolgter Infektion wurden die überlebenden Tiere gezählt.

[2] = system: Pasteurella multocida; settings: mice infected i.p. with 0,1 x 10^4 cfu Pasteurella multocida; Cefroxadin s.c. immediately and 3 h after infection, combined with 10 mg/kg N-Acetyl-muramyl-L-alanyl-D-isoglutaminyl-L-alanyl-2-(1',2'-dipalmitoyl-sn-glycero-3'-hydroxyphosphoryloxy)-äthylamid, compared with Cefroxadin alone; survivors counted after 4 or 10 days
Text: as §1, §2

[3] = system: Salmonella typhimurium; settings: mice infected i.p. with 40 x 10^4 cfu Salmonella typhimurium; Cefroxadin s.c. immediately and 3 h after infection, combined with 10 mg/kg N-Acetyl-muramyl-L-alanyl-D-isoglutaminyl-L-alanyl-2-(1',2'-dipalmitoyl-sn-glycero-3'-hydroxyphosphoryloxy)-äthylamid, compared with Cefroxadin alone; survivors counted after 4 or 10 days
Text: as §1, §2

Measured: ED50-Werte für das Antibiotikum bei kombinierter Gabe mit dem Muramylpeptid

COC1=C(C(=O)O)N2C(=O)[C@@H](NC(=O)[C@H](N)C3=CCC=CC3)[C@H]2SC1 [Cefroxadin, 7ß-[D-2-amino-2-(1,4-cyclohexadienyl)-acetamido]-3-methoxy-3-cephem-4-carbonsäure]
um ein Mehrfaches niedriger: all assays above
